# Reference: patent publication US20220227776A1, “PRODRUGS OF 1'-S[…]-NUCLEOSIDE ANALOGUES FOR ANTIVIRAL TREATMENT” (Copycat Sciences Inc., priority 2020, published 2022)
# Legend:
# Caco-2 = Caco-2 permeability AB/BA; format: in vitro ADME; details: for Caco-2 permeability AB: AB direction; for Caco-2 permeability BA: BA direction; for Caco-2 Efflux: BA/AB
# [1] = Phosphate buffer stability at 25° C.; format: physicochemical
# Source text: (§1) As summarized in Table 8, these studies indicate that CAT002 is an efficient prodrug of GS-441524 that is well-suited for clinical development as an oral agent.
# [2] = Human intestinal S9 stability at 37° C.; format: in vitro ADME
# Source text: Across all species tested, CAT002 was efficiently metabolized to the core nucleoside GS-441524 when administered orally, indicating efficient first-pass intestinal or hepatic metabolism. Rapid hydrolysis of CAT002 in human intestinal homogenates indicated intestinal metabolism as the primary mechanism of CAT002 hydrolysis.
# [3] = Thermodynamic solubility at pH 7.4; format: physicochemical
# Source text: as §1
# [4] = Human plasma stability at 37° C.
# [5] = Plasma pharmacokinetics of GS-441524 following oral administration of CAT002 in Sprague-Dawley rats; format: in vivo
# Protocol: CAT002 (16 mg/kg; 10.8 mg/kg-equivalent of the parent nucleoside, GS-441524) was formulated in saline (1.60 mg/mL) and orally administered to fasted male rats (N=2). Whole blood samples were collected at the following timepoints (hours) in K2EDTA collection tubes: 0.25, 0.50, 1.00, 2.00, 4.00, 8.00, 24.0, 48.0.
# (§2) Sample preparation. Plasma was isolated by protein precipitation in a 96-well plate at 0° C. An aliquot of 20 μL unknown sample, calibration standard, quality control and dilution quality control (if have), single blank, and double blank sample was added to the 96-well plate respectively. Each sample (except the double blank) was quenched with 100 μL of IS1 respectively (double blank sample was quenched with 100 μL of MeOH), and then the mixture was vortex-mixed for 10 min at 800 rpm and centrifuged for 15 min at 3220×g, 4° C. An aliquot of 60 μL supernatant was transferred to another clean 96-well plate and centrifuged for 5 min at 3220×g, 4° C., then the supernatant was directly injected for LC-MS/MS analysis.
# LC-MS/MS analysis. Metabolites of interest (CAT002, GS-441524) were then quantified by LC-MS/MS (SCIEX LC-MS/MS-BZ Triple Quad 6500+, ACQUITY UPLC HSS T3 1.8 μm 2.1×50 mm Column; mobile phase A: 0.1% formic acid in water, mobile phase B: 0.1% formic acid in acetonitrile; flow rate: 0.65 mL/min.). Gradient conditions were as follows: 2% B over 0.2 minutes, 2-25% B from 0.2-1.2 minutes, 25-95% from 1.2-1.4 minutes, 95% from 1.4-2.1 minutes, 95-2% from 2.1-2.11 minutes, 2% from 2.11-2.2 minutes). The lower limit of quantification for both CAT002 and GS-441524 was 2.00 ng/mL. Data for both CAT002 and GS-441524 were fitted and analyzed by Phoenix NonWinLin 6.3 using noncompartmental model 200 (extravascular output). Data on directly administered oral GS-441524 were obtained from the NCATS OpenData Portal and are plotted alongside data generated from CAT002 for comparison (FIG. 1).
# [6] = Plasma pharmacokinetics of GS-441524 following oral administration of CAT002 in humans; format: in vivo
# Protocol: CAT002 (HCl salt) was administered as excipient-less gelatin capsules to healthy participants (N=2) in the fasted state. Participant 1 (Subject 1) is a healthy person and Participant 2 (Subject 2) is a healthy person. Both Participants 1 and 2 were administered 5.4 mg/kg CAT002 (3 mg/kg-equivalent GS-441524). Whole blood samples were collected at the following timepoints (hours) in K2EDTA collection tubes: 0.5, 1, 3.6, 8, 24, 43. Plasma was isolated by centrifugation and samples were stored at −78° C. before analysis.
# In-life PK of orally administered GS-441524. GS-441524 was administered as an excipient-less gelatin capsule (200 mg) to Participant 1 in the fasted state. Whole blood samples were collected at the following timepoints (hours) in K2EDTA collection tubes: 0.5, 1, 3.6, 8, 24, 43. Plasma was isolated by centrifugation and samples were stored at −78° C. before analysis. Sample preparation. An aliquot of 20 μL unknown sample, calibration standard, quality control and dilution quality control (if have), single blank, and double blank sample was added to the 96-well plate respectively. Each sample (except the double blank) was quenched with 100 μL of IS1 respectively (double blank sample was quenched with 100 μL of MeOH), and then the mixture was vortex-mixed for 10 min at 800 rpm and centrifuged for 15 min at 3220×g, 4° C. An aliquot of 60 μL supernatant was transferred to another clean 96-well plate and centrifuged for 5 min at 3220×g, 4° C., then the supernatant was directly injected for LC-MS/MS analysis.
# LC-MS/MS analysis. Metabolites of interest (GS-441524) were then quantified by LC-MS/MS (SCIEX LC-MS/MS-BZ Triple Quad 6500+, ACQUITY UPLC HSS T3 1.8 μm 2.1×50 mm Column; mobile phase A: 0.1% formic acid in water, mobile phase B: 0.1% formic acid in acetonitrile; flow rate: 0.65 mL/min.). […] The lower limit of quantification was 1.00 ng/mL. Data for both CAT002 and GS-441524 were fitted and analyzed by Phoenix NonWinLin 6.3 using noncompartmental model 200 (extravascular output) (FIG. 3).
# [7] = Human hepatic microsomal stability (+/- mixed cofactors); format: in vitro ADME
# [8] = Plasma pharmacokinetics of GS-441524 following oral administration of CAT002 in cynomolgus macaques; format: in vivo
# Protocol: CAT002 (7.8 mg/kg; 4.9 mg/kg-equivalent of the parent nucleoside, GS-441524) was formulated in saline (1.60 mg/mL) and orally administered to fasted male cynomolgus macaques (N=2). GS-441524 is in turn intracellularly converted to the bioactive ATP analogue, GS-443902. GS-443902 is known to have an antiviral activity and affinity for viral polymerase. See Gordon et al. JBC 2020; 295(20): 6785-6797; Tchesnokov et al. JBC 2020: 295(47):16156-16165; Yin et al. Science 2020: 368(6498): 1499-1504. Whole blood samples were collected at the following timepoints (hours) in K2EDTA collection tubes: 0.25, 0.50, 1.00, 2.00, 4.00, 8.00, 24.0, 48.0.
# as §2
# LC-MS/MS analysis. Metabolites of interest (CAT002, GS-441524) were then quantified by LC-MS/MS (SCIEX LC-MS/MS-BZ Triple Quad 6500+, ACQUITY UPLC HSS T3 1.8 μm 2.1×50 mm Column; mobile phase A: 0.1% formic acid in water, mobile phase B: 0.1% formic acid in acetonitrile; flow rate: 0.65 mL/min.). Gradient conditions were as follows: 2% B over 0.2 minutes, 2-25% B from 0.2-1.2 minutes, 25-95% from 1.2-1.4 minutes, 95% from 1.4-2.1 minutes, 95-2% from 2.1-2.11 minutes, 2% from 2.11-2.2 minutes). The lower limit of quantification for 1.00 ng/mL for CAT002 and 2.00 ng/mL for GS-441524. Data for both CAT002 and GS-441524 were fitted and analyzed by Phoenix NonWinLin 6.3 using noncompartmental model 200 (extravascular output). […]
# [9] = oral CAT002, analyte GS-441524 in plasma
# [10] = oral CAT002 in aqueous solution
compound,measurement,setting,value
"N#C[C@@]1(c2ccc3c(N)ncnn23)O[C@H](CO)[C@@H](O)[C@H]1O [GS-441524, reference compound]",Caco-2 permeability AB,Caco-2,0.17 cm/sec•10^6
same,Caco-2 permeability BA,Caco-2,2.1 cm/sec•10^6
same,Caco-2 Efflux,Caco-2,12.4
same,"Phosphate buffer stability at 25° C., T1/2",[1]; pH not specified,Stable
same,Human intestinal S9 stability at 37° C.,[2],Stable
same,Thermodynamic solubility at pH 7.4,[3],0.04 mg/mL
same,Human plasma stability at 37° C.,[4]; plasma type not specified,Stable
"((2R,3S,4R,5R)-5-(4-aminopyrrolo[2,1-f][1,2,4]triazin-7-yl)-5-cyano-3,4-dihydroxytetrahydrofuran-2-yl)methyl D-valinate [CAT002]",plasma levels of CAT002 (for determining its half-life),"[5]; oral CAT002, analyte CAT002",either too low or below the limit of quantification
same,half-life of GS-441524 derived from CAT002,[5]; [9],3 h
same,"plasma exposure to GS-441524 with respect to Cmax, fold higher than previously reported for equivalent doses of oral GS-441524 in organic solution",[5]; [10],approximately 6 fold
same,Caco-2 permeability AB,Caco-2,0.55 cm/sec•10^6
same,Caco-2 permeability BA,Caco-2,0.45 cm/sec•10^6
same,Caco-2 Efflux,Caco-2,0.8
same,plasma levels of CAT002 (for determining its half-life),"[6]; oral CAT002, analyte CAT002",either too low or below the limit of quantification
same,half-life of GS-441524 derived from CAT002,[6]; [9],7.3 h
same,"plasma exposure of the core nucleoside with respect to Cmax, fold higher than oral solution of GS-441524 at an equivalent per-molar dose",[6]; oral CAT002 powder-in-capsule formulation,approximately 4 fold
same,"Phosphate buffer stability at 25° C., T1/2",[1]; pH 3.0,pH 3.0: Stable
same,"Phosphate buffer stability at 25° C., T1/2",[1]; pH 7.4,pH 7.4: 30 hours
same,Human intestinal S9 stability at 37° C.,[2],19.5 min
same,"aqueous solubility at neutral pH, fold greater than GS-441524","[3]; neutral pH, relative to GS-441524",87 fold
same,Thermodynamic solubility at pH 7.4,[3],3.4 mg/mL
same,"Human hepatic microsomal stability, T1/2",[7],67 minutes (− cofactors)
same,Human plasma stability at 37° C.,[4]; EDTA plasma,EDTA plasma: 195 minutes
same,Human plasma stability at 37° C.,[4]; Heparin plasma,Heparin plasma: >289.1 minutes
same,plasma levels of CAT002 (for determining its half-life),"[8]; oral CAT002, analyte CAT002",either too low or below the limit of quantification
same,half-life of GS-441524 derived from CAT002,[8]; [9],8 h
same,"plasma exposure to GS-441524 with respect to Cmax, fold higher than previously reported for equivalent doses of oral GS-441524 in organic solution",[8]; [10],approximately 6 fold
